# Results taken from US4690923A, “2-(Perhydro-1,4-diazino)-pyrimido(5,4-D)-pyrimidines, pharmaceutical compositions and use” (Karl Thomae GmbH, priority 1979, dated 1987).
# Tests used:
# thrombocytes = test: Collagen-induced aggregation of thrombocytes in human platelet-rich plasma (Born and Cross); type: cell-based; details: 10 min, platelet-rich plasma of healthy human subjects, incubated 10 minutes at 37° C. before collagen, determined graphically, read-out: EC50 (dosage producing 50% inhibition of the thrombocyte aggregation)
# Method: The aggregation of thrombocytes was measured according to the method of BORN and CROSS [J. Physiol. 170, 397 (1964)] in the platelet-rich plasma of healthy human test subjects. To inhibit coagulation, the blood was admixed with a 3.14% sodium citrate solution in a volumetric ration of 1:10.
# The decrease in optical density was measured and recorded photometrically after the addition of the aggreation-inducing substance. From the angle of inclination of the density curve, the rate of aggregation was estimated (Vmax). The optical density was taken as the point on the curve where the most light was transmitted (O.D.).
# Small doses of collagen were chosen, but sufficient to give irreversible aggregation. (Commercial collagen of Hormonchemie, Munich, Germany.)
# Before the addition of collagen, the plasma was incubated with the substance for 10 minutes at 37° C.,
# The dosage of the test compound which produced a 50% inhibition of the thrombocyte aggregation was determined graphically (EC50).
# [1] = Acute toxicity after oral administration of a single dose; type: in vivo; details: in vivo; mouse, oral single dose 250 mg/kg, 5 mice each, observation time 7 days; read-out: Acute toxicity per os
# Method: (§1) The acute toxicity was determined in groups of 5 mice each after oral administration of a single dose of 250 mg/kg (observation time: 7 days). The test compound was suspended in 2% methyl cellulose, and after addition of some water, each substance was administered to the conscious animals by means of a stomach tube.
# mice = test: as above; type: in vivo; details: mouse, oral single dose 250 mg/kg, observation time 7 days
# Method: as §1
SMILES,EC50 (thrombocytes) [nM],LD50 at 168 h [1] [mg/kg],animals died (mice)
"CCSc1ncnc2c(N3CC[S+]([O-])CC3)nc(N3CCNCC3)nc12 [B, 8-Ethylthio-4-(1-oxido-thiomorpholino)-2-piperazino-pyrimido-[5,4-d]-pyrimidine]",< 10,,
"c1ccc(CSc2ncnc3c(N4CCOCC4)nc(N4CCNCC4)nc23)cc1 [C, 8-Benzylthio-4-morpholino-2-piperazino-pyrimido-[5,4-d]-pyrimidine]",8.5,> 250,0 out of 5 animals
"CSc1ncnc2c(N3CC[S+]([O-])CC3)nc(N3CCNCC3)nc12 [Compound A, 8-Methylthio-4-(1-oxido-thiomorpholino)-2-piperazino-pyrimido-[5,4-d]-pyrimidine]",1,,
"[O-][S+]1CCN(c2nc(N3CCNCC3)nc3c(SCCc4ccccc4)ncnc23)CC1 [Compound E, 4-(1-Oxido-thiomorpholino)-8-phenethylthio-2-piperazino-pyrimido-[5,4-d]-pyrimidine]",22,> 250,0 out of 5 animals
"[O-][S+]1CCN(c2nc(N3CCNCC3)nc3c(SCc4ccccc4)ncnc23)CC1 [D, 8-Benzylthio-4-(1-oxido-thiomorpholino)-2-piperazino-pyrimido-[5,4-d]-pyrimidine]",30,> 250,0 out of 5 animals
"[O-][S+]1CCN(c2nc(N3CCN(CCO)CC3)nc3c(SCc4ccccc4)ncnc23)CC1 [F, 8-Benzylthio-2-[N-(2-hydroxyethyl)-piperazino]-4-(1-oxido-thiomorpholino)-pyrimido-[5,4-d]-pyrimidine]",380,> 250,0 out of 5 animals
"CCN(CC)CCSc1ncnc2c(N3CC[S+]([O-])CC3)nc(N3CCNCC3)nc12 [G, 8-(2-Diethylaminoethyl-thio)-4-(1-oxido-thiomorpholino)-2-piperazino-pyrimido-[5,4-d]-pyrimidine]",20,> 250,0 out of 5 animals
"O=C(c1ccco1)N1CCN(c2nc(N3CCOCC3)c3ncnc(SCc4ccccc4)c3n2)CC1 [H, 8-Benzylthio-2-[N-(2-furoyl)-piperazino]-4-morpholino-pyrimido-[5,4-d]-pyrimidine]",100,> 250,0 out of 5 animals
"COc1ccc(CSc2ncnc3c(N4CCOCC4)nc(N4CCNCC4)nc23)cc1OC [I, 8-(3,4-dimethoxybenzyl-thio)-4-morpholino-2-piperazino-pyrimido-[5,4-d]-pyrimidine]",10,,
"CN1CCN(c2nc(N3CC[S+]([O-])CC3)c3ncnc(SCc4ccccc4)c3n2)CC1 [K, 8-Benzylthio-2-(N-methyl-piperazino)-4-(1-oxido-thio-morpholino)-pyrimido-[5,4-d]-pyrimidine]",350,> 250,0 out of 5 animals
"Clc1ccc(CSc2ncnc3c(N4CCOCC4)nc(N4CCNCC4)nc23)c(Cl)c1 [L, 8-(2,4-Dichlorobenzyl-thio)-4-morpholino-2-piperazino-pyrimido-[5,4-d]-pyrimidine]",8,> 250,0 out of 5 animals
"O=CN1CCN(c2nc(N3CC[S+]([O-])CC3)c3ncnc(SCc4ccccc4)c3n2)CC1 [M, 8-Benzylthio-2-(N-formyl-piperazino)-4-(1-oxido-thiomorpholino)-pyrimido-[5,4-d]-pyrimidine]",15,> 250,0 out of 5 animals
"OCCOc1ncnc2c(N3CCOCC3)nc(N3CCNCC3)nc12 [N, 8-(2-Hydroxyethoxy)-4-morpholino-2-piperazino-pyrimido-[5,4-d]-pyrimidine]",40,,
"[O-][S+]1CCN(c2nc(N3CCNCC3)nc3c(SCCO)ncnc23)CC1 [O, 8-(2-Hydroxyethyl-thio)-4-(1-oxido-thiomorpholino)-2-piperazino-pyrimido-[5,4-d]-pyrimidine]",28,> 250,0 out of 5 animals
"c1ccc(Sc2ncnc3c(N4CCSCC4)nc(N4CCNCC4)nc23)cc1 [P, 8-Phenylthio-2-piperazino-4-thiomorpholino-pyrimido-[5,4-d]-pyrimidine]",~100,,
"[O-][S+]1CCN(c2nc(N3CCNCC3)nc3c(OCc4ccccc4)ncnc23)CC1 [Q, 8-Benzyloxy-4-(1-oxido-thiomorpholino)-2-piperazino-pyrimido-[5,4-d]-pyrimidine]",3.6,> 250,0 out of 5 animals
"[O-][S+]1CCN(c2nc(N3CCNCC3)nc3c(NCc4ccccc4)ncnc23)CC1 [R, 8-Benzylamino-4-(1-oxido-thiomorpholino)-2-piperazino-pyrimido-[5,4-d]-pyrimidine]",4.2,> 250,0 out of 5 animals
"CN(Cc1ccccc1)c1ncnc2c(N3CC[S+]([O-])CC3)nc(N3CCNCC3)nc12 [S, 8-(N-Benzyl-methylamino)-4-(1-oxido-thiomorpholino)-2-piperazino-pyrimido-[5,4-d]-pyrimidine]",3,> 250,0 out of 5 animals
"c1ccc(CNc2ncnc3c(N4CCSCC4)nc(N4CCNCC4)nc23)cc1 [T, 8-Benzylamino-2-piperazino-4-thiomorpholino-pyrimido-[5,4-d]-pyrimidine]",250,> 250,0 out of 5 animals
"CN(Cc1ccccc1)c1ncnc2c(N3CC[S+]([O-])CC3)nc(N3CCN(C=O)CC3)nc12 [U, 8-(N-Benzyl-methylamino)-2-(N-formyl-piperazino)-4-(1-oxido-thiomorpholino)-pyrimido-[5,4-d]-pyrimidine]",290,> 250,1 out of 5 animals
"[O-][S+]1CCN(c2nc(N3CCNCC3)nc3c(Nc4ccccc4)ncnc23)CC1 [V, 8-Anilino-4-(1-oxido-thiomorpholino)-2-piperazino-pyrimido-[5,4-d]-pyrimidine]",30,> 250,1 out of 5 animals
